Measurements: patent US20050048539A1, “Methods to monitor molecule conformation and molecule/molecule proximity” (The General Hospital Corporation, priority 2003, published 2005)

Tests used:
APP and PS1 = experiment: Photobleach dequenching FRET assay between APP and PS1; assay type: cell-based, Chinese hamster
Procedure: Fluorescence Resonance Energy Transfer (FRET) measurements were made using a BioRad1024 confocal microscope mounted on a Nikon Eclipse TE300 inverted Microscope. A krypton-argon laser was used to excite FITC and Cy3 (excitation wavelengths at 488 and 568 nm, respectively). FRET was measured using a method developed for laser scanning confocal microscopy (McLean, P. J. et al., J Biol Chem 275: 8812-8816, 2000; Kinoshita, A. et al., J Neurosci 21: 8354-8361, 2001). The amount of FRET was calculated as a percent increase in donor (FITC) fluorescence intensity after photobleaching the acceptor (Cy3) in a small part of the cell (˜8×8 μm). This ratio was then normalized to the percent change in FITC fluorescence intensity in a non-bleached area of the cell. The percent change in fluorescence intensity was compared to the null hypothesis value of 1.0 by one-group t-tests.
FRET arises when donor and acceptor molecules are <10 nm apart. […] A small area within the cell was photobleached at 568 nm (acceptor only), and FITC fluorescence intensity (at 488 nm) was measured before and after photobleaching.
Treatment with γ-secretase inhibitors (or Asp mutations in PS1) prevents processing of substrates at γ-secretase site. […] This was also true for the D257A PS1 mutation; we observed 25.9±11% (n=8, P<0.05) increase in FITC-fluorescence intensity, compared to a non-FRET control.

[1] = system: full-length APP, BACE1 and APP CTFs; experiment: Western blot of full-length APP, BACE1 and APP CTFs in N2a cells transfected with human APP751; assay type: cell-based, mouse; details: 1 μM DAPT
Procedure: For the Western Blot analysis, the cells were lysed in 1% Triton X-100 and electrophoresed in 10-20% SDS-polyacrylamide Tris-Glycine gels. The immunoblotting was performed using the APP C8 antibody (Selkoe, D. J. et al., Proc. Natl. Acad. Sci. USA 85, 7341-7345, 1988), mouse actin (Sigma-Aldrich) or rabbit BACE1 (Calbiochem), followed by detection with ECL reagent (Perkin Elmer, Boston, Mass.). Bands on films were quantitated (Odyssey software, LI-COR, Nebraska) and the values normalized to actin expression.
We further examined whether NSAIDs lead to a decrease in γ-secretase activity. Inhibition of γ-secretase activity leads to accumulation of C99 and C83 (APP CTFs) and decreased release of AICD. Mouse N2a neuroblastoma cells were transfected with human APP751, and were treated with different NSAIDs and a Western blot was performed for full-length APP and APP CTFs (FIG. 16A). […] Next we asked whether NSAIDs alter generation of AICD and examined the effects of NSAIDs on the ability of APP-Gal4 to be cleaved by γ-secretase, releasing the Gal4-AICD fragment which activates a Gal4-dependent, artificially expressed, luciferase plasmid (Cao, X. et al., Science 293: 115-120, 2001). […]

Aβ secretion = experiment: Aβ production after DAPT treatment (sister cultures); assay type: cell-based, Chinese hamster
Procedure: (§1) Chinese hamster ovary (CHO) cells stably transfected with APP770 and either wild type PS1 (wt PS1) or Aspartate mutant PS1 (D257A PS1) were grown in OPTI-MEM with 5% fetal bovine serum and appropriate antibiotics (Puromycin or Zeocin, respectively, (Berezovska et al., 2000)).
We investigated whether APP and PS1 interactions would still be observed if γ-secretase function was inhibited.

[2] = system: APP and PS1 (PS1/γ-secretase complex); experiment: FLIM assay for PS1 loop-APP C-terminus proximity in CHO cells treated with γ-secretase inhibitors; assay type: cell-based, Chinese hamster; details: WT PS1 CHO cells; donor PS1 loop-FITC, acceptor APP770-CY3; 4 h with DAPT 500 nM or WPE-III-31C 1 μM; non-FRET control 2600 ± 110, untreated 2290 ± 216
Procedure: as §1
Cells were fixed and immunostained 24 hrs posttransfection as described previously (Jack, C. et al., Brain Res Mol Brain Res 87: 166-174, 2001). We used a polyclonal C8 antibody (Selkoe, D. et al., Proc Natl Acad Sci USA 85: 7341-7345, 1988) to detect the C-terminus of APP. A monoclonal antibody to the loop region of PS1 (Chemicon, Temecula, Calif.) was used to identify the γ-secretase complex. PS1 N-terminal X81 antibody was a gift from D. Selkoe (Brigham and Women's Hospital, Boston, Mass.); PS1 C-terminal antibody was purchased from R&D Systems, Inc., Minneapolis, Minn.). For FRET/FLIM studies we chose Cy3-labeled goat anti-rabbit as the acceptor fluorophore, and FITC-labeled goat anti-mouse as the donor fluorophore.
Fluorescence Lifetime Imaging Microscopy (FLIM) relies on the observation that fluorescence lifetimes (the time of fluorophore emission after brief excitation, measured in picoseconds) are shorter in the presence of a FRET acceptor. […] We used a high-speed Hamamatsu detector and hardware/software from Becker and Hickl (Berlin, Germany) to measure fluorescence lifetimes on a pixel-by-pixel basis. […]
The following controls were used to establish and validate the FLIM assay: (1) As a negative control, FITC lifetime was measured in the absence of the acceptor. […] (2) As a positive control, FITC lifetime was measured in the presence of an acceptor. […] By contrast, the FITC fluorescence lifetime (FLIM image) within the area where the acceptor was photobleached reverts to a longer lifetime (color-coded as blue), identical to the lifetime of FITC in the absence of an acceptor (as in the negative control, FIG. 7A). […]
If there was no interaction, lifetimes on the order of ˜2600 psec were observed. If FRET was detected, a population with a statistically shorter lifetime (<˜2400 psec) was observed.

## C[C@H](NC(=O)Cc1cc(F)cc(F)c1)C(=O)N[C@H](C(=O)OC(C)(C)C)c1ccccc1 [DAPT]
APP and PS1; DAPT-treated cells
  association of APP with PS1 (photobleach FRET, FIG. 10): does not prevent close association of APP with PS1
APP and PS1; wt PS1/APP770 cells, DAPT treatment, untreated 11.6±3%
  FRET: percent increase in FITC fluorescence intensity after photobleaching Cy3: 19.8±2%
[1]
  APP CTFs (Western blot): accumulation of APP CTFs
Aβ secretion
  Aβ secretion: significant decrease
[2]
  FITC Lifetime (psec) mean ± SD: 2416 ± 118 (n = 9) psec
